In paper PMC11477000, “Enantioselective Binding of Proton Pump Inhibitors to Alpha1-Acid Glycoprotein and Human Serum Albumin—A Chromatographic, Spectroscopic, and In Silico Study” (International Journal of Molecular Sciences, 2024):

Molecular target: human serum albumin (HSA) (Homo sapiens, UniProt P02768)
Experiment: HPLC on HSA-based chiral stationary phase (Daicel Chiralpak HSA column)
Assay type: binding
Details: HSA column, 25 °C
Experimental: HPLC using a protein-based chiral stationary phase is a fully automated method for obtaining rapid information about the binding of compounds to the respective proteins. Enantioseparation occurs in the case of unequal binding constants of the individual enantiomers to the immobilized proteins, thus allowing enantioselective binding to be characterized even when a racemic mixture was injected. As a preliminary step, the enantiospecific binding was investigated on columns containing AGP and HSA in various alcohol:buffer mixtures. A pH 7 phosphate buffer was employed as the aqueous part of the mobile phase, while for the organic part, three different alcohols were evaluated.
In the following step, we investigated the effect of changing some other chromatographic conditions on the protein binding. The pH of the aqueous phase influenced the protonation state of both the analyte and the proteins. It should be noted that the pH tolerance of protein-based columns is narrow due to the possible denaturation of proteins. Taking into account the guidelines of the manufacturer, three different pH values were investigated (pH 6, 6.5, and 7) at a 95:5 (v/v%) buffer:IPA eluents ratio [49]. The buffer was uniformly 10 mM phosphate. […] The effect of different buffer constituents was also evaluated. In addition to phosphate buffer, ammonium acetate, ammonium bicarbonate, and sodium citrate were tested and compared under the same conditions.
Chromatographic measurements were carried out on two separate HPLC systems. The AGP binding study was performed on a Waters 2695e chromatographic system paired with a Waters 2996 PDA detector, controlled by Empower 3 FR5 (Waters Corp., Milford, MA, USA), while the HSA binding study was performed on an Agilent 1100 HPLC system, consisting of an inline degasser (G1322A), a quaternary pump (G1311A), an automatic injector (G1329A) paired with sample thermostat (G1330A), a column thermostat (G1316A), and a diode array detector (G1315A) with Agilent Chemstation B04.03-SP2 software (Agilent, Bronnwald, Germany). For the binding studies, two protein-based chiral stationary phases were utilized. The chromatographic binding study for AGP was conducted on a ChromTech Chiral-AGP column (150 mm × 4.0 mm; ChromTech Ltd., Congleton, UK), while the binding study for HSA was performed on a Daicel Chiralpak HSA column (50 mm × 4.0 mm; Daicel Corp., Osaka, Japan). The detection wavelength was 210 nm for all measurements. The stock solutions of PPIs were prepared at a concentration of 1 mg/mL in MeOH. Subsequent dilutions were prepared using water. The injected samples were mixed and diluted from the stock solutions. The final concentration for the eutomer was 0.2 mg/mL, and for the distomer, it was 0.1 mg/mL. A volume of 2 μL was injected. To mitigate the instability of PPIs in aqueous solutions, the samples were kept at a temperature of 4 °C.

[1] = 1% EtOH, 10 mM pH 7 phosphate buffer
[2] = 1% IPA, 10 mM pH 7 phosphate buffer
[3] = 1% MeOH, 10 mM pH 7 phosphate buffer
[4] = 2.5% EtOH, 10 mM pH 7 phosphate buffer
[5] = 2.5% IPA, 10 mM pH 7 phosphate buffer
[6] = 2.5% MeOH, 10 mM pH 7 phosphate buffer
[7] = 5% EtOH, 10 mM pH 7 phosphate buffer
[8] = 5% IPA, 10 mM pH 7 phosphate buffer
[9] = 5% MeOH, 10 mM pH 7 phosphate buffer
[10] = 7.5% EtOH, 10 mM pH 7 phosphate buffer
[11] = 7.5% IPA, 10 mM pH 7 phosphate buffer
[12] = 7.5% MeOH, 10 mM pH 7 phosphate buffer
[13] = 10% EtOH, 10 mM pH 7 phosphate buffer
[14] = 10% IPA, 10 mM pH 7 phosphate buffer
[15] = 10% MeOH, 10 mM pH 7 phosphate buffer
[16] = 12.5% IPA, 10 mM pH 7 phosphate buffer

Chain of human serum albumin (HSA) (P02768 25-609): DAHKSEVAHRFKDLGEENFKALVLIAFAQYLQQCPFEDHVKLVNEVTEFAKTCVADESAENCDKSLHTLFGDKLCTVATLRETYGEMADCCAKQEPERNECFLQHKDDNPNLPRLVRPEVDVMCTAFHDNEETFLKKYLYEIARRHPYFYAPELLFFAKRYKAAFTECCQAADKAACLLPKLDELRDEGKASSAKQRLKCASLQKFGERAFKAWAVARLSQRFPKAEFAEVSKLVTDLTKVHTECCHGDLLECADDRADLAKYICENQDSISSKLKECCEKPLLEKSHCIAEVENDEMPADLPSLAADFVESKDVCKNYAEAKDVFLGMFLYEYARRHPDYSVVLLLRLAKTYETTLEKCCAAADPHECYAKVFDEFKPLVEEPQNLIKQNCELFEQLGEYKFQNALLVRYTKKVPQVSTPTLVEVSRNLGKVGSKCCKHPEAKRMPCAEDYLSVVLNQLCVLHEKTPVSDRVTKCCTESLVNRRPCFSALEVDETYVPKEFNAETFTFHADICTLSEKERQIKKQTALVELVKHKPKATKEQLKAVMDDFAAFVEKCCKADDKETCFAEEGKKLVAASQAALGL

## Cc1c(OCC(F)(F)F)ccnc1C[S+]([O-])c1nc2ccccc2[nH]1 (centres unmarked) [Lansoprazole, lansoprazole]
[1]
  EEO enantiomer elution order: R < S
  Rs resolution: 1.0
  k1 retention factor (first-eluting enantiomer): 10.13
  k2 retention factor (second-eluting enantiomer): 14.32
[2]
  EEO enantiomer elution order: R < S
  Rs resolution: 1.8
  k1 retention factor (first-eluting enantiomer): 11.17
  k2 retention factor (second-eluting enantiomer): 18.27
[3]
  EEO enantiomer elution order: R < S
  Rs resolution: 1.0
  k1 retention factor (first-eluting enantiomer): 10.66
  k2 retention factor (second-eluting enantiomer): 15.61
[4]
  EEO enantiomer elution order: R < S
  Rs resolution: 0.3
  k1 retention factor (first-eluting enantiomer): 6.92
  k2 retention factor (second-eluting enantiomer): 8.39
[5]
  EEO enantiomer elution order: R < S
  Rs resolution: 1.0
  k1 retention factor (first-eluting enantiomer): 9.26
  k2 retention factor (second-eluting enantiomer): 12.87
[6]
  EEO enantiomer elution order: R < S
  Rs resolution: 0.8
  k1 retention factor (first-eluting enantiomer): 7.92
  k2 retention factor (second-eluting enantiomer): 10.16
[7]
  k1 retention factor (first-eluting enantiomer): 5.26
  k2 retention factor (second-eluting enantiomer): 5.26
[8]
  EEO enantiomer elution order: R < S
  Rs resolution: 0.2
  k1 retention factor (first-eluting enantiomer): 5.79
  k2 retention factor (second-eluting enantiomer): 6.63
[9]
  EEO enantiomer elution order: R < S
  Rs resolution: 0.2
  k1 retention factor (first-eluting enantiomer): 6.05
  k2 retention factor (second-eluting enantiomer): 7.29
[10]
  k1 retention factor (first-eluting enantiomer): 4.11
  k2 retention factor (second-eluting enantiomer): 4.11
[11]
  k1 retention factor (first-eluting enantiomer): 4.37
  k2 retention factor (second-eluting enantiomer): 4.37
[12]
  k1 retention factor (first-eluting enantiomer): 4.92
  k2 retention factor (second-eluting enantiomer): 4.92
[13]
  k1 retention factor (first-eluting enantiomer): 3.24
  k2 retention factor (second-eluting enantiomer): 3.24
[14]
  k1 retention factor (first-eluting enantiomer): 3.45
  k2 retention factor (second-eluting enantiomer): 3.45
[15]
  k1 retention factor (first-eluting enantiomer): 4.03
  k2 retention factor (second-eluting enantiomer): 4.03
[16]
  k1 retention factor (first-eluting enantiomer): 2.71
  k2 retention factor (second-eluting enantiomer): 2.71
Acetate buffer, 1% 2-propanol
  Rs resolution: 1.8
Bicarbonate buffer, 1% 2-propanol
  Rs resolution: 1.2
Citrate buffer, 1% 2-propanol
  Rs resolution: 1.9
Phosphate buffer, 1% 2-propanol
  Rs resolution: 1.8

## COc1ccc2[nH]c([S+]([O-])Cc3ncc(C)c(OC)c3C)nc2c1 (centres unmarked) [Omeprazole, omeprazole]
[1]
  k1 retention factor (first-eluting enantiomer): 9.89
  k2 retention factor (second-eluting enantiomer): 9.89
[2]
  k1 retention factor (first-eluting enantiomer): 9.53
  k2 retention factor (second-eluting enantiomer): 9.53
[3]
  k1 retention factor (first-eluting enantiomer): 7.79
  k2 retention factor (second-eluting enantiomer): 7.79
[4]
  k1 retention factor (first-eluting enantiomer): 5.53
  k2 retention factor (second-eluting enantiomer): 5.53
[5]
  k1 retention factor (first-eluting enantiomer): 8.66
  k2 retention factor (second-eluting enantiomer): 8.66
[6]
  k1 retention factor (first-eluting enantiomer): 6.37
  k2 retention factor (second-eluting enantiomer): 6.37
[7]
  k1 retention factor (first-eluting enantiomer): 3.68
  k2 retention factor (second-eluting enantiomer): 3.68
[8]
  k1 retention factor (first-eluting enantiomer): 4.34
  k2 retention factor (second-eluting enantiomer): 4.34
[9]
  k1 retention factor (first-eluting enantiomer): 4.95
  k2 retention factor (second-eluting enantiomer): 4.95
[10]
  k1 retention factor (first-eluting enantiomer): 2.61
  k2 retention factor (second-eluting enantiomer): 2.61
[11]
  k1 retention factor (first-eluting enantiomer): 2.82
  k2 retention factor (second-eluting enantiomer): 2.82
[12]
  k1 retention factor (first-eluting enantiomer): 3.82
  k2 retention factor (second-eluting enantiomer): 3.82
[13]
  k1 retention factor (first-eluting enantiomer): 1.97
  k2 retention factor (second-eluting enantiomer): 1.97
[14]
  k1 retention factor (first-eluting enantiomer): 2.03
  k2 retention factor (second-eluting enantiomer): 2.03
[15]
  k1 retention factor (first-eluting enantiomer): 2.97
  k2 retention factor (second-eluting enantiomer): 2.97
[16]
  k1 retention factor (first-eluting enantiomer): 1.50
  k2 retention factor (second-eluting enantiomer): 1.50

## COCCCOc1ccnc(C[S+]([O-])c2nc3ccccc3[nH]2)c1C (centres unmarked) [Rabeprazole, rabeprazole]
[1]
  k1 retention factor (first-eluting enantiomer): 6.16
  k2 retention factor (second-eluting enantiomer): 6.16
[2]
  k1 retention factor (first-eluting enantiomer): 7.21
  k2 retention factor (second-eluting enantiomer): 7.21
[3]
  k1 retention factor (first-eluting enantiomer): 6.61
  k2 retention factor (second-eluting enantiomer): 6.61
[4]
  k1 retention factor (first-eluting enantiomer): 3.97
  k2 retention factor (second-eluting enantiomer): 3.97
[5]
  k1 retention factor (first-eluting enantiomer): 5.45
  k2 retention factor (second-eluting enantiomer): 5.45
[6]
  k1 retention factor (first-eluting enantiomer): 5.08
  k2 retention factor (second-eluting enantiomer): 5.08
[7]
  k1 retention factor (first-eluting enantiomer): 2.87
  k2 retention factor (second-eluting enantiomer): 2.87
[8]
  k1 retention factor (first-eluting enantiomer): 3.32
  k2 retention factor (second-eluting enantiomer): 3.32
[9]
  k1 retention factor (first-eluting enantiomer): 3.68
  k2 retention factor (second-eluting enantiomer): 3.68
[10]
  k1 retention factor (first-eluting enantiomer): 2.16
  k2 retention factor (second-eluting enantiomer): 2.16
[11]
  k1 retention factor (first-eluting enantiomer): 2.37
  k2 retention factor (second-eluting enantiomer): 2.37
[12]
  k1 retention factor (first-eluting enantiomer): 2.95
  k2 retention factor (second-eluting enantiomer): 2.95
[13]
  k1 retention factor (first-eluting enantiomer): 1.66
  k2 retention factor (second-eluting enantiomer): 1.66
[14]
  k1 retention factor (first-eluting enantiomer): 1.79
  k2 retention factor (second-eluting enantiomer): 1.79
[15]
  k1 retention factor (first-eluting enantiomer): 2.34
  k2 retention factor (second-eluting enantiomer): 2.34
[16]
  k1 retention factor (first-eluting enantiomer): 1.37
  k2 retention factor (second-eluting enantiomer): 1.37
